Test results published in patent US20210147381A1, “1,2,3,4-SUBSTITUTED QUINOLINE COMPOUNDS AS SIP MODULATORS” (AbbVie Deutschland GmbH & Co. KG, priority 2017, published 2021).

Columns and labels:
Format in all cases: cell-based
[1] = molecular target: T1, human S1P1 receptor (S1PR1) (Homo sapiens, UniProt P21453); test: Intracellular Ca2+ release (method 1), agonist potency, S1P1; details: CHO-K1 cells expressing human S1PR1; cells given as bound
T1 construct: host or cells: CHO-K1
Method: (§1) Agonistic activity and efficacy of compounds was assessed in recombinant cells using method 1 described below.
(§2) Agonist potency and efficacy were assessed by measurement of intracellular Ca^2+ release. Recombinant CHO-K1 cells (Euroscreen, Brussels, Belgium) expressing human S1PR5, S1PR1, S1PR3 or S1PR4 receptors, aequorin, and GTP binding protein Gq/i5 were cultured using a medium containing nutrient mixture F-12 Ham (Sigma-Aldrich) with 10% FBS, and 100 μg/mL gentamicin and equilibrated at 5% CO2.
(§3) 15,000 cells in 20 μL medium were seeded into Biocoat poly-D-Lysine coated 384 well plates (Becton Dickinson #35-6663) and grown to 95% confluency after 24 h.
(§4) Culture medium was replaced by an assay buffer consisting of HBBS with Ca^2+ and Mg^2+ (Invitrogen #14025-050), 20 mmol/L Hepes (Sigma-Aldrich #H-3375), 2.5 mmol/L probenecid (Sigma-Aldrich #P-8761, and 0.1% BSA (Sigma-Aldrich #A-7030) pH 7.4. The Calcium 5 no-wash FLIPR assay kit (Molecular Devices #5000625) was performed as described in the kit instructions. Cells were incubated with Calcium 5 dye for 1 h at 37° C., 5% CO2 in the dark. After 45 min adaptation to RT assessment of agonist stimulation of intracellular Ca^2+ release was performed by addition of test compounds at various concentrations obtained by serial dilution. Phospho-fingolimod was used as positive control and reference agonist (intrinsic activity 100%).
(§5) Agonism of test compounds at the human S1Px receptors were characterized by the EC50 values (potencies) deduced from a nonlinear 4 parametric logistic curve fit to the measured fluorescence data after normalization to the lower and upper plateaus of the fitted reference agonist's (phospho-fingolimod)effect curve and by their efficacy (Emax) values represented by their maximum achievable effects in % of the reference agonist's efficacy, which is defined as an Emax of 100%.

[2] = molecular target: T2, human S1P4 receptor (S1PR4) (Homo sapiens, UniProt O95977); test: Intracellular Ca2+ release (method 1), agonist potency, S1P4; details: CHO-K1 cells expressing human S1PR4
T2 construct: host or cells: CHO-K1
T2 sequence (O95977 1-384): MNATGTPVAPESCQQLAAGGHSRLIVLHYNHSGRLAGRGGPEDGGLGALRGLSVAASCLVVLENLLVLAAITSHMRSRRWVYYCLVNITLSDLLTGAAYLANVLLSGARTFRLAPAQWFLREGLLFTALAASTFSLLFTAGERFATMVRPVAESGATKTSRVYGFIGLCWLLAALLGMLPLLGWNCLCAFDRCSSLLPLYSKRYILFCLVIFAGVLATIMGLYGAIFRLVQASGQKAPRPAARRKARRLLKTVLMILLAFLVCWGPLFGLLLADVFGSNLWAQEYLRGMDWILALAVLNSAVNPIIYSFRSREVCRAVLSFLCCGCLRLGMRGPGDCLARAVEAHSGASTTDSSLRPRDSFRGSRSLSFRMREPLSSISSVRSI
Method: as §1, §2, §3, §4, §5

[3] = molecular target: T3, human S1P5 receptor (S1PR5) (Homo sapiens, UniProt Q9H228); test: Intracellular Ca2+ release (method 1), agonist potency and efficacy, S1P5; details: for Emax: read-out: hS1P5 EMax; for EC50: recombinant CHO-K1 cells expressing human S1PR5, aequorin, Gq/i5, Ca2+ release, read-out: S1P5 EC50 range
T3 construct: host or cells: CHO-K1
Method: as §1, §2, §3, §4, §5

[4] = maximum effect in % of reference agonist phospho-fingolimod (100%)

T3 sequence (Q9H228 whole entry): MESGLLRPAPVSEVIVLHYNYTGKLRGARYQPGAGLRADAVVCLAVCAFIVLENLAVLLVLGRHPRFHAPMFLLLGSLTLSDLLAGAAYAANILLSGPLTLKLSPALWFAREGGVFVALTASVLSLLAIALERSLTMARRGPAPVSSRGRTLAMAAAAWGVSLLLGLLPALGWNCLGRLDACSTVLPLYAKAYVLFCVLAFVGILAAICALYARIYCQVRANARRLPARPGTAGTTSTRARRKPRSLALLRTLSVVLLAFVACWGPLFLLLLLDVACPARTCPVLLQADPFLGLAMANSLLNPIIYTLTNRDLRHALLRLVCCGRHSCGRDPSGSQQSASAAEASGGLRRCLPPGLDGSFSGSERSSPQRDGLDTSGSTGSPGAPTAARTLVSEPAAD
T1 sequence (P21453 whole entry): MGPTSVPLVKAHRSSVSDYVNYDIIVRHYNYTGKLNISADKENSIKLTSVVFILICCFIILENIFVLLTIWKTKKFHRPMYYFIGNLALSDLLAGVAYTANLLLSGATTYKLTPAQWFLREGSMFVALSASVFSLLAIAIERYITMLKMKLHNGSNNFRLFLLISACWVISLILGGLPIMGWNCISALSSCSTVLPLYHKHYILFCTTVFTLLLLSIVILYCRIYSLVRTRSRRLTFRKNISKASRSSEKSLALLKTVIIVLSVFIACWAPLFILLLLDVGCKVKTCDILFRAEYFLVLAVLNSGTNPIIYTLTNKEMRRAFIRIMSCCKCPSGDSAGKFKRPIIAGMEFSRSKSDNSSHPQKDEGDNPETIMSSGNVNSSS

| SMILES | EC50 [1] [µM] | EC50 ([2]; cells given as bound) [µM] | Emax [3, 4] [%] | EC50 [3] [µM] | EC50 [2] [µM] | hS1P5 EMax [3, 4] |
| --- | --- | --- | --- | --- | --- | --- |
| CC(=O)O.O=C(O)CCN1Cc2ccc(C#Cc3c(Cl)cccc3Cl)cc2C2(CC2)C1 [Compound 30, 3-(6′-((2,6-dichlorophenyl)ethynyl)-1′H-spiro[cyclopropane-1,4′-isoquinolin]-2′(3′H)-yl)propanoic acid acetic acid salt (1:1)] |  |  |  |  | 0.1 to 1 | ++ (EMax = 50-100, determined with method 1) |
| CCOc1cc(C)c(C#Cc2ccc3c(c2)C2(CC2)CN(CCCC(=O)O)C3)cn1 [Compound 49, 4-(6′-((6-ethoxy-4-methylpyridin-3-yl)ethynyl)-1′H-spiro[cyclopropane-1,4′-isoquinolin]-2′(3′H)-yl)butanoic acid] | > 1 | > 1 | 50 to 100 | 0.01 to 0.1 |  |  |
| CCOc1ccc(C#Cc2ccc3c(c2)C2(CC2)CN(CCCC(=O)O)C3)cn1 [Compound 50, 4-(6′-((6-ethoxypyridin-3-yl)ethynyl)-1′H-spiro[cyclopropane-1,4′-isoquinolin]-2′(3′H)-yl)butanoic acid] | > 1 | > 1 | 50 to 100 | 0.1 to 1 |  |  |
| CCOc1ncc(C#Cc2ccc3c(c2)C2(CC2)CN(CCCC(=O)O)C3)cc1F [Compound 51, 4-(6′-((6-ethoxy-5-fluoropyridin-3-yl)ethynyl)-1′H-spiro[cyclopropane-1,4′-isoquinolin]-2′(3′H)-yl)butanoic acid] | > 1 | > 1 | 50 to 100 | 0.1 to 1 |  |  |
| CC(C)Oc1ccc(C#Cc2ccc3c(c2)C2(CC2)CN(CCCC(=O)O)C3)nc1 [Compound 52, 4-(6′-((5-isopropoxypyridin-2-yl)ethynyl)-1′H-spiro[cyclopropane-1,4′-isoquinolin]-2′(3′H)-yl)butanoic acid] | > 1 | > 1 | > 100 | 0.1 to 1 |  |  |
| CCOc1ccc(C#Cc2ccc3c(c2)C2(CC2)CN(CCCC(=O)O)C3)c(C)n1 [Compound 53, 4-(6′-((6-ethoxy-2-methylpyridin-3-yl)ethynyl)-1′H-spiro[cyclopropane-1,4′-isoquinolin]-2′(3′H)-yl)butanoic acid] | > 1 | > 1 | 50 to 100 | 0.1 to 1 |  |  |
| CCOc1ccc(C#Cc2ccc3c(c2)C2(CC2)CN(CCCC(=O)O)C3)nc1 [Compound 54, 4-(6′-((5-ethoxypyridin-2-yl)ethynyl)-1′H-spiro[cyclopropane-1,4′-isoquinolin]-2′(3′H)-yl)butanoic acid] | > 1 | > 1 | 50 to 100 | 1 to 10 |  |  |
| COc1ncc(C#Cc2ccc3c(c2)C2(CC2)CN(CCCC(=O)O)C3)cc1F [Compound 55, 4-(6′-((5-fluoro-6-methoxypyridin-3-yl)ethynyl)-1′H-spiro[cyclopropane-1,4′-isoquinolin]-2′(3′H)-yl)butanoic acid] | > 1 | > 1 | < 50 | 1 to 10 |  |  |
| O=C(O)CCCN1Cc2ccc(C#Cc3ccc4c(c3)OCO4)cc2C2(CC2)C1 [Compound 56, 4-(6′-(benzo[d][1,3]dioxol-5-ylethynyl)-1′H-spiro[cyclopropane-1,4′-isoquinolin]-2′(3′H)-yl)butanoic acid] | > 1 | > 1 | 50 to 100 | 1 to 10 |  |  |
| COc1ccc(C#Cc2ccc3c(c2)C2(CC2)CN(CCCC(=O)O)C3)c(C)n1 [Compound 57, 4-(6′-((6-methoxy-2-methylpyridin-3-yl)ethynyl)-1′H-spiro[cyclopropane-1,4′-isoquinolin]-2′(3′H)-yl)butanoic acid] | > 1 | > 1 | 50 to 100 | 1 to 10 |  |  |
| CC(CC(=O)O)CN1Cc2ccc(C#Cc3ccc(OC(C)C)nc3)cc2C2(CC2)C1 (stereo not shown) [Compound 59, 4-(6′-((6-isopropoxypyridin-3-yl)ethynyl)-1′H-spiro[cyclopropane-1,4′-isoquinolin]-2′(3′H)-yl)-3-methylbutanoic acid] | > 1 | > 1 | 50 to 100 | < 0.01 |  |  |
| CC(CC(=O)O)CN1Cc2ccc(C#Cc3ccc(C(C)C)cc3)cc2C2(CC2)C1 (stereo not shown) [Compound 60, 4-(6′-((4-isopropylphenyl)ethynyl)-1′H-spiro[cyclopropane-1,4′-isoquinolin]-2′(3′H)-yl)-3-methylbutanoic acid] | > 1 | > 1 | 50 to 100 | < 0.01 |  |  |
| CC(CC(=O)O)CN1Cc2ccc(C#Cc3ccc(OC(F)(F)F)c(F)c3)cc2C2(CC2)C1 (stereo not shown) [Compound 61, 4-(6′-((3-fluoro-4-(trifluoromethoxy)phenyl)ethynyl)-1′H-spiro[cyclopropane-1,4′-isoquinolin]-2′(3′H)-yl)-3-methylbutanoic acid] | > 1 | > 1 | 50 to 100 | < 0.01 |  |  |

Second part, led by results:

| EC50 [1] [µM] | EC50 ([2]; cells given as bound) [µM] | Emax [3, 4] [%] | EC50 [3] [µM] | EC50 [2] [µM] | SMILES | hS1P5 EMax [3, 4] |
| --- | --- | --- | --- | --- | --- | --- |
| > 1 | > 1 | 50 to 100 | 1 to 10 |  | O=C(O)CCCN1Cc2ccc(C#Cc3ccc(=O)n(CC4CC4)c3)cc2C2(CC2)C1 [Compound 4, 4-(6′-((1-(cyclopropylmethyl)-6-oxo-1,6-dihydropyridin-3-yl)ethynyl)-1′H-spiro[cyclopropane-1,4′-isoquinolin]-2′(3′H)-yl)butanoic acid] |  |
| > 1 | > 1 | 50 to 100 | 0.1 to 1 |  | CCOc1ccc(C#Cc2ccc3c(c2)C2(CC2)CN(CC(=O)O)C3)cc1 [Compound 5, 2′-(carboxymethyl)-6′-((4-ethoxyphenyl)ethynyl)-2′,3′-dihydro-1′H-spiro[cyclopropane-1,4′-isoquinolin]-2′-ium 2,2,2-trifluoroacetate] |  |
| > 1 | > 1 | > 100 | 0.1 to 1 |  | CC(C)c1ccc(C#Cc2ccc3c(c2)C2(CC2)CN(CC(=O)O)C3)cc1 [Compound 6, 2′-(carboxymethyl)-6′-((4-isopropylphenyl)ethynyl)-2′,3′-dihydro-1′H-spiro[cyclopropane-1,4′-isoquinolin]-2′-ium 2,2,2-trifluoroacetate] |  |
| > 1 | > 1 | 50 to 100 | 0.1 to 1 |  | CC(C)Oc1ccc(C#Cc2ccc3c(c2)C2(CC2)CN(CC2(C(=O)O)CC2)C3)cc1 [Compound 8, 1-((6′-((4-isopropoxyphenyl)ethynyl)-1′H-spiro[cyclopropane-1,4′-isoquinolin]-2′(3′H)-yl)methyl)cyclopropanecarboxylic acid] |  |
| > 1 | > 1 | > 100 | 0.1 to 1 |  | O=C(O)C1(CN2Cc3ccc(C#Cc4ccc(OC5CCCC5)nc4)cc3C3(CC3)C2)CC1 [Compound 9, 1-((6′-((6-(cyclopentyloxy)pyridin-3-yl)ethynyl)-1′H-spiro[cyclopropane-1,4′-isoquinolin]-2′(3′H)-yl)methyl)cyclopropanecarboxylic acid] |  |
| > 1 |  | 50 to 100 | 0.1 to 1 | 0.1 to 1 | O=C(O)CN1Cc2ccc(OCc3c(Cl)cccc3Cl)cc2C2(CC2)C1 [Compound 12, 2-(6′-((2,6-Dichlorobenzyl)oxy)-1′H-spiro[cyclopropane-1,4′-isoquinolin]-2′(3′H)-yl)acetic acid] |  |
| > 1 |  | < 50 | 0.1 to 1 | 0.1 to 1 | O=C(O)CCCN1Cc2ccc(OCc3ccc(Cl)cc3)cc2C2(CC2)C1 [Compound 16, 4-(6′-((4-Chlorobenzyl)oxy)-1′H-spiro[cyclopropane-1,4′-isoquinolin]-2′(3′H)-yl)butanoic acid] |  |
| > 1 | > 1 | 50 to 100 | 0.1 to 1 |  | O=C(O)CCCN1Cc2ccc(OCc3ccc(F)cc3)cc2C2(CC2)C1 [Compound 17, 4-(6′-((4-Fluorobenzyl)oxy)-1′H-spiro[cyclopropane-1,4′-isoquinolin]-2′(3′H)-yl)butanoic acid] |  |
